Measurements from patent publication US8486382B2, “Method for treating cervical cancer” (ZymoGenetics, Inc., priority 2001, dated 2013).

System: HeLa229
Experiment: HeLa229 cytotoxicity assay (MTT readout)
Type: cell-based
Settings: 72 hrs
Procedure: We tested IL-20 in a HeLa229 cytotoxicity assay to measure the ability of IL-20 to prevent cells from growing during normal growth conditions. We used MTT reagent (Promega, Madison, WI USA) as our detection and readout for this inhibition assay. Procedure of a cytotoxicity assay:
Day 1—Plate cells out in complete growth media (with serum) at 5000 cells/well in a 96 well format and let them incubate overnight at 37 degrees and 5% CO2.
Day 2—Dump off media and add a dose response of appropriate ligands in complete growth media (IL-20, zmda1, and MDA7 at 10, 100, and 1000 ng/ml.), along with a positive control retinoic acid (100 uM) in complete growth media, while leaving some wells in complete growth media as controls of how the cells normally grow under normal conditions. Put the cells in incubator and let the assay go for 72 hrs.
Day 5—Add 15 ul/well of MTT reagent, let cells inc. for 4 hrs., then add 100 ul of stop solution, let cells inc. for an additional 1 hr., then read the plate on a multilabel counter (Victor2, PerkinElmer Life Sciences Inc., Boston). The MTT protocol will give you two readings, one at a 650 wavelength (background) and one at a 572 wavelength. Subtract the 650 reading from the 572 reading to get your actual output. These numbers are averaged and converted to a % inhibition value.

Molecule	inhibition at 100 µM (Homo sapiens, HeLa 229, HeLa229 cells, retinoic acid 100 uM (positive control), read-out: inhibition of growth) [%]	maximal inhibition of growth (HeLa229 cells, IL-20 dose response 10, 100, and 1000 ng/ml) [%]
CC1=C(/C=C/C(C)=C/C=C/C(C)=C/C(=O)O)C(C)(C)CCC1 [Retnoic Acid, retinoic acid]	53	
IL-20: Interleukin-20 (formally called Zcyto10); human polypeptide of 176 amino acids, SEQ ID NO:2 (protein, listed as Homo sapiens) MKASSLAFSLLSAAFYLLWTPSTGLKTLNLGSCVIATNLQEIRNGFSDIRGSVQAKDGNIDIRILRRTESLQDTKPANRCCLLRHLLRLYLDRVFKNYQTPDHYTLRKISSLANSFLTIKKDLRLCHAHMTCHCGEEAMKKYSQILSHFEKLEPQAAVVKALGELDILLQWMEETE		20
